Measurements reported in patent publication US5792742A, “Fibrin-binding peptide fragments of fibronectin” (New York University, priority 1994, dated 1998).

What was measured:
[1] = tested on: fibrin; assay: Fibrin-SEPHAROSE affinity chromatography (binding and elution); parameters: species or system bovine
Protocol: Bovine fibrinogen was cross-linked to CNBr-activated SEPHAROSE™ (5 mg/ml beads) according to the manufacturer's instructions. Coupled fibrinogen was subsequently converted to fibrin by incubation with human thrombin to a final concentration of 5 NIH units/ml and 100 K.I. (kallikrein inhibitory) units/ml of aprotinin (in 0.05M Tris-HCI buffer, pH 7.6, containing 0.1M NaCl and 0.01M EDTA) for three hours, at room temperature (Gold, et al. (1983) Biochemistry 22, 4113-4119).
1.0M NaCl in 0.05M tris buffer, pH 8.0.
The fibrin-binding activity of the proteolytically derived 25.9 kDa fragment of Fn was determined by its ability to bind to a fibrin affinity matrix. […] FBB was used to equilibrate and wash the column. Following warming of the column to 22° C., the column was washed with FBB until absorbance at 280 nm (A280) was less than 0.01, and bound protein eluted with 0.05M Tris-HCl, 0.5M NaCl, 6M urea buffer, pH 7.6.
The module (500 μg/1.0 ml) was incubated for 4 hours (while rotating) at 4° C. in the presence of 1.0 ml fibrin-SEPHAROSE™ (5 mg fibrin/ml SEPHAROSE™ beads) equilibrated in […] Tris-HCl, 0.1M NaCl buffer, pH 7.6.
The 11 KDa peptide (50 μg/0.206 ml) was radiolabeled using the IODO-BEAD method (Pierce Chemical). The peptide was added to one IODO-BEAD in the presence of 100 μCi ^125 I (17.4 Ci/mg, New England Nuclear) and incubated on ice for 10 minutes. The bead was removed and the free ^125 I removed by chromatography through a PD10 column containing SEPHADEX™ G-25 (Pharmacia). […] The radioiodinated 11 kDa fibrin-binding peptide (500 μg/1.5 ml) was combined with 1 ml of fibrin-SEPHAROSE™ (5 mg fibrin/ml beads) equilibrated with 50 mM Tris-HCl, 0.1M NaCl buffer, pH 7.6, and rotated for 4 hours, at 4° C. The mixture was poured onto a disposable column (0.6 cm×8.0) and the unbound protein washed through. The column was equilibrated to room temperature and washed with the equilibration buffer.

[2] = Heparin affinity chromatography; format: binding; settings: NaCl gradient in 0.05M tris buffer, pH 8.0
Description: Upon warming the column to room temperature, a 25.9 kDa fragment was eluted with FBB (Peak a, FIG. 3). […] 1.0M NaCl in 0.05M tris buffer, pH 8.0. The yield of the 11 kDa fragment from the intact molecule was approximately 5% (w/w). This is the same as the theoretical yield. The extinction coefficient has been determined to be approximately 4.5, based on a comparison between A280 and protein concentration determination by Coomassie Protein Assay (Pierce Chemical Co.).

[3] = tested on: fibrin
Protocol: Since the anti-Fn detection system described for the ELISA above could not be used in Fn competition assays employing the intact Fn molecule or the 25.8 kDa proteolytic fragment, purified Fn was biotinylated using water soluble NHS-LC-Biotin (Pierce Chemm. Co.; according to the manufacturer's instructions) and binding to fibrin detected by alkaline phosphatase conjugated streptavidin (diluted 1/500 in FBBT/BSA) for 1 hour at 22° C., followed by the addition of p-nitrophenyl phosphate, as described above. To ensure that the biotinylation of the Fn had not affected its ability to bind to fibrin, fibrin-binding activity was tested by incubating increasing concentrations of biotinylated Fn (10-300 ng/0.1 ml FBB) with the fibrin-coated wells (200 ng) and detected (see FIG. 28A) using alkaline phosphatase-conjugated streptavidin and the reaction developed as described for Direct Elisa.
To compare the relative fibrin-binding affinities of the ^4 F1.^5 F1 recombinant module pair and the 25.9 kDa proteolytic fragment (^1 F1-^5 F1) with that of the native Fn molecule, these purified proteins were competed with biotinylated plasma Fn for binding to fibrin coated wells and the extent of inhibition of binding assessed by incubation with alkaline phosphatase-conjugated streptavidin. […] Biotinylated Fn (100 ng/0.1 ml FBB: 2.3 nM) was combined with increasing concentrations (0-10 μM) of either unlabeled Fn, the 25.9 kDa proteolytic fragment, or the separate ^4 F1.^5 F1, and ^10 F1 recombinant modules and incubated with the fibrin-coated microtiter wells for 1 hour at 22° C. […] Bound biotinylated Fn was quantitated as described above.

[4] = previously shown (Baron et al. 1990); cited from earlier work

25.9 kDa fragment: 25.9 kDa N-terminal proteolytic fibrin-binding fragment of fibronectin (^1 F1-^5 F1), residues 17-246 of SEQ ID NO:1
% of protein applied eluted on warming the column to 22° C. (room temperature) ([1]; FBB buffer): approximately 8%
% of protein applied eluted with 0.5M NaCl, 6.0M urea buffer ([1]; after warming to 22° C.): approximately 17%
% of protein applied retained by fibrin-SEPHAROSE ([1]; binding at 4° C., 500 μg applied): 25%
% of protein applied retained by fibrin-Sepharose with increasing amounts applied ([1]; increasing amounts applied to a fixed volume of fibrin-Sepharose): 25%
relative affinity for fibrin (from elution conditions) ([1]; temperature change vs denaturing conditions (6M urea or 50% ethylene glycol) for elution): lower affinity
NaCl concentration at elution from heparin affinity chromatography [2]: 0.25 M
fold higher concentration over intact Fn needed for 50% inhibition [3]: 7.5 fold
maximal inhibition of biotinylated Fn binding to fibrin ([3]; 10 μM of protein (5,000 molar excess)): 75%
IC50 ([3]; read-out: IC50, 50% inhibition of binding of biotinylated Fn to fibrin, biotinylated Fn 2.3 nM, 200 ng fibrin, 1 hour 22° C.): 150 nM
Ki ([3]; read-out: KI estimated from IC50 (Cheng and Prussoff)): 145 nM
heparin-binding activity, affinity [4]: intermediate
